Laboratory results reported in US6495065B1, “Nitrosamine-inhibiting compositions for shortstopping of free radical emulsion polymerizations” (Atofina Chemicals, Inc., priority 1999, dated 2002).

Test: Solubility in water

SMILES	Solubility in water [wt. %]
CC(C)NO [NiPHA, N-isopropylhydroxylamine]	~15
CCN(O)CC [DEHA, diethylhydroxylamine]	~85
